# Data: ChEMBL document CHEMBL1152560, “Substituted 2-arylbenzothiazoles as kinase inhibitors: hit-to-lead optimization” (Bioorg Med Chem, 2009)
# Legend:
# [1] = target: Tyrosine-protein kinase JAK2 (Homo sapiens) (UniProt O60674); test: Residual activity of JAK2 at 0.1 uM by microplate scintillation counting
# [2] = target: CDK1/Cyclin E (Homo sapiens) (UniProt P06493+P24864); test: Residual activity of CDK1/Cyclin E at 10 uM by microplate scintillation counting; type: protein-complex assay
# [3] = target: T1, Serine/threonine-protein kinase 3 (Homo sapiens) (UniProt Q13188); test: Residual activity of MST2 at 0.1 uM by microplate scintillation counting
# T1 sequence (whole entry): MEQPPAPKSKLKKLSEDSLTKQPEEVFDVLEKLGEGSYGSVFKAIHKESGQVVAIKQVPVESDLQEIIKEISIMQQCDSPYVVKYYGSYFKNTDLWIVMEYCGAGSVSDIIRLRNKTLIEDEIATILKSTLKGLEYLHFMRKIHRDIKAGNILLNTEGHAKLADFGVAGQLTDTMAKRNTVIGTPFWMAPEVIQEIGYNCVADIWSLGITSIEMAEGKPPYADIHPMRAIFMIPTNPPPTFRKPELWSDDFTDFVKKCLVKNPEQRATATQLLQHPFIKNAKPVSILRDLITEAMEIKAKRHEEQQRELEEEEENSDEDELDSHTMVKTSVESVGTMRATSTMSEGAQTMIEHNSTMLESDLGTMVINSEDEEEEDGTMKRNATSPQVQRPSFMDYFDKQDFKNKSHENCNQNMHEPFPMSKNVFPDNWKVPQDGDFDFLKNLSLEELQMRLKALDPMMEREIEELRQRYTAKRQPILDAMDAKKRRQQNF
# [4] = target: Fibroblast growth factor receptor 2 (Homo sapiens) (UniProt P21802); test: Residual activity of FGFR2 at 0.1 uM by microplate scintillation counting
# Sequence of Fibroblast growth factor receptor 2 (Homo sapiens) (P21802 22-821 limits assumed): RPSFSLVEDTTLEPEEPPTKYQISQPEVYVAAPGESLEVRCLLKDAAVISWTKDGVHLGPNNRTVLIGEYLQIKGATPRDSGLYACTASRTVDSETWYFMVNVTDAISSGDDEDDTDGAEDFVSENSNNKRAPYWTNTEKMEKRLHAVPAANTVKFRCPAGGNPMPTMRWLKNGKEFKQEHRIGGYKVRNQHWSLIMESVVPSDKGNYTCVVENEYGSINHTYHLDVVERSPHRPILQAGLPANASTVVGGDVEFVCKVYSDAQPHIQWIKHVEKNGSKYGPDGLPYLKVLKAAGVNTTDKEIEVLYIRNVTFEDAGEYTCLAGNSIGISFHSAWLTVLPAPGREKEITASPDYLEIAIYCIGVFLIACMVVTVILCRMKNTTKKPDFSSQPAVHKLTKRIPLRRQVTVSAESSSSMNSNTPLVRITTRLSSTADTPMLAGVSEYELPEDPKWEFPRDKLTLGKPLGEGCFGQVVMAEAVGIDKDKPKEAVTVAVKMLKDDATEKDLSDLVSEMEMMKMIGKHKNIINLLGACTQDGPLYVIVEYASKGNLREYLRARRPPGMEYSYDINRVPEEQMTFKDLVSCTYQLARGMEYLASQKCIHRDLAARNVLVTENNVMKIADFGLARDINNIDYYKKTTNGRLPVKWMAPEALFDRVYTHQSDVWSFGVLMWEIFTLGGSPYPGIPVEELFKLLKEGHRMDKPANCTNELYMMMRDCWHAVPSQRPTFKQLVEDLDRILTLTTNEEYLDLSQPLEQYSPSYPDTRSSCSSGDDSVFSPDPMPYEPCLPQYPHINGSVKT
# [5] = target: RAC-gamma serine/threonine-protein kinase (Homo sapiens) (UniProt Q9Y243); test: Residual activity of AKT3 at 1 uM by microplate scintillation counting
# Sequence of RAC-gamma serine/threonine-protein kinase (Homo sapiens) (Q9Y243 whole entry): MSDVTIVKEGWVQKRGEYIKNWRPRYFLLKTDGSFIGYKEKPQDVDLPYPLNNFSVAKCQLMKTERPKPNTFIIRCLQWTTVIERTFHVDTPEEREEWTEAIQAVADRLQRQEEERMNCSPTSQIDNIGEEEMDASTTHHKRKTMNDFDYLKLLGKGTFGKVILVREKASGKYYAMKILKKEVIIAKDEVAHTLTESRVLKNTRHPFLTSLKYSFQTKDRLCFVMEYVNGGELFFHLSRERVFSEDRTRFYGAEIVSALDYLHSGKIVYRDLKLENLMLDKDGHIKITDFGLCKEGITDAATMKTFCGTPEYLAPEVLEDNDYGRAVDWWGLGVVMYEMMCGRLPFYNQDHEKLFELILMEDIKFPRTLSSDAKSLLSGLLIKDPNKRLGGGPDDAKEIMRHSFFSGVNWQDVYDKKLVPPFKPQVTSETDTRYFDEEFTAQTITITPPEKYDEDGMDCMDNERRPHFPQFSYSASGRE
# [6] = target: T2, Muscle, skeletal receptor tyrosine-protein kinase (Homo sapiens) (UniProt O15146); test: Residual activity of MUSK at 1 uM by microplate scintillation counting
# T2 sequence (whole entry): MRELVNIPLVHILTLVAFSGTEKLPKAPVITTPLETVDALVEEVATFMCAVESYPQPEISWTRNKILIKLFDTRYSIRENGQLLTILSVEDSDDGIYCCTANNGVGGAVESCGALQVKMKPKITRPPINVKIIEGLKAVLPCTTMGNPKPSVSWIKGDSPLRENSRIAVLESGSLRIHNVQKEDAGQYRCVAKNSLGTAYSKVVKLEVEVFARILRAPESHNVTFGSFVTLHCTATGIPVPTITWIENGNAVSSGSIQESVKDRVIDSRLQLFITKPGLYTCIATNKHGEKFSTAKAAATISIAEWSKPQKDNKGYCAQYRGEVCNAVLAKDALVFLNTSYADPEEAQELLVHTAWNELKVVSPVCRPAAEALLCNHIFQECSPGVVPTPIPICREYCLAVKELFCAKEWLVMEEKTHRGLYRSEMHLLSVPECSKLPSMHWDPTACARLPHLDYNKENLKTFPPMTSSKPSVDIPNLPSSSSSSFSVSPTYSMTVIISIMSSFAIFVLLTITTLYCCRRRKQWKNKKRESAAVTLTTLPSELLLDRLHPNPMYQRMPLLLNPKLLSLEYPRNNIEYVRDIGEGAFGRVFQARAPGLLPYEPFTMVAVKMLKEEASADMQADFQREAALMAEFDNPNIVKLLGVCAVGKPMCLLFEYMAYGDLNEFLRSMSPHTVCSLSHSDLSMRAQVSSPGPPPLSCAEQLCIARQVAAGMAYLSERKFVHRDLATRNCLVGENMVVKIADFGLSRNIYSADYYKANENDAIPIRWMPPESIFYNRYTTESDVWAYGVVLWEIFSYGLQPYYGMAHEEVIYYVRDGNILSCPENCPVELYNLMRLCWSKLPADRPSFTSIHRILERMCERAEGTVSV
# [7] = target: T3, Testis-specific serine/threonine-protein kinase 2 (Homo sapiens) (UniProt Q96PF2); test: Residual activity of TSK2 at 0.1 uM by microplate scintillation counting
# T3 sequence (whole entry): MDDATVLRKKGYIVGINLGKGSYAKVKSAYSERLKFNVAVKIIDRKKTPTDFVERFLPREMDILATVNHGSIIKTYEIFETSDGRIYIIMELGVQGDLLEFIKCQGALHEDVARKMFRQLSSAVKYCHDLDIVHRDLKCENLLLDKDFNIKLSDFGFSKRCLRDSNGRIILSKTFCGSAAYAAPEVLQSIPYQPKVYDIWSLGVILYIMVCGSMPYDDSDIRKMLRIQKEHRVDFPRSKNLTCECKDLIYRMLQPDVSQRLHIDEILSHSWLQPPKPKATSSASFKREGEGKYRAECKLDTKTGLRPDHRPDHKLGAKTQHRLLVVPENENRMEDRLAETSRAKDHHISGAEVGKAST
# [8] = target: T4, Beta-adrenergic receptor kinase 1 (Homo sapiens) (UniProt P25098); test: Residual activity of GRK2 at 10 uM by microplate scintillation counting
# T4 sequence (whole entry): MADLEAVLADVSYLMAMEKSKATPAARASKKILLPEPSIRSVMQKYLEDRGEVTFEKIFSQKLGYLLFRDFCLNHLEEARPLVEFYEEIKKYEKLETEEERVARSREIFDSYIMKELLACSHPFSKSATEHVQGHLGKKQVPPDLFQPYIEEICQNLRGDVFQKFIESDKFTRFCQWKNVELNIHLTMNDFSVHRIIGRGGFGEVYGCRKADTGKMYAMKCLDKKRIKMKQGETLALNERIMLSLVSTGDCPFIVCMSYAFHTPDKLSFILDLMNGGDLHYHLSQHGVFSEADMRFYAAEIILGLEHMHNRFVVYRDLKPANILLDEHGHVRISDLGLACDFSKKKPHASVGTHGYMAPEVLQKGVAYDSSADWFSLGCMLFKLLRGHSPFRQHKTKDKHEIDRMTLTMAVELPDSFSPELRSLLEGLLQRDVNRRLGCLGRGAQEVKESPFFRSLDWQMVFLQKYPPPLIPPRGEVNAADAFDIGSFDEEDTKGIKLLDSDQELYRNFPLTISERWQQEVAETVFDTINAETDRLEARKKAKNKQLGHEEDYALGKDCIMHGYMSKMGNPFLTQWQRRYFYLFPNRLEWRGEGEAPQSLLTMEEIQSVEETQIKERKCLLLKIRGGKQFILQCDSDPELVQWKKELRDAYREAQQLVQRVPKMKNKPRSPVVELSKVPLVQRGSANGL
# [9] = target: Protein kinase C eta type (Homo sapiens) (UniProt P24723); test: Residual activity of PKCeta at 1 uM by microplate scintillation counting
# Sequence of Protein kinase C eta type (Homo sapiens) (P24723 whole entry): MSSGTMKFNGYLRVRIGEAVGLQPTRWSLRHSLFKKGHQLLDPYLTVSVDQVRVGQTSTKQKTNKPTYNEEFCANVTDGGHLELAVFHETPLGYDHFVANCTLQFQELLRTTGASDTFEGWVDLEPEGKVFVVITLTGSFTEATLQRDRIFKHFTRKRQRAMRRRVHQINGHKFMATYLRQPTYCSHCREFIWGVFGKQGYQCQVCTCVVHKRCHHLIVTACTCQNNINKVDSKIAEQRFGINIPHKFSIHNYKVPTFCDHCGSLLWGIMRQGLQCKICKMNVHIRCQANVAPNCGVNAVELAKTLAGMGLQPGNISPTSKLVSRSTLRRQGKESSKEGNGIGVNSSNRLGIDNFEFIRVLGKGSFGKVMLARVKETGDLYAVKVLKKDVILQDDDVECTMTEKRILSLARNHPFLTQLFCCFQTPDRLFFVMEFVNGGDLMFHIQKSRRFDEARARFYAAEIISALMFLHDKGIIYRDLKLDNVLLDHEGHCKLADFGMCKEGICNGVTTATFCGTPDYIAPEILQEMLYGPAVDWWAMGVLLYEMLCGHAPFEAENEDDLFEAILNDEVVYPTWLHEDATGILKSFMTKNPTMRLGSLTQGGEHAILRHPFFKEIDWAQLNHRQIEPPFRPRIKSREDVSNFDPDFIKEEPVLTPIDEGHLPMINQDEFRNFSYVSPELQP
# [10] = target: Serine/threonine-protein kinase N2 (Homo sapiens) (UniProt Q16513); test: Residual activity of PRK2 at 0.1 uM by microplate scintillation counting
# Sequence of Serine/threonine-protein kinase N2 (Homo sapiens) (Q16513 whole entry, looked up): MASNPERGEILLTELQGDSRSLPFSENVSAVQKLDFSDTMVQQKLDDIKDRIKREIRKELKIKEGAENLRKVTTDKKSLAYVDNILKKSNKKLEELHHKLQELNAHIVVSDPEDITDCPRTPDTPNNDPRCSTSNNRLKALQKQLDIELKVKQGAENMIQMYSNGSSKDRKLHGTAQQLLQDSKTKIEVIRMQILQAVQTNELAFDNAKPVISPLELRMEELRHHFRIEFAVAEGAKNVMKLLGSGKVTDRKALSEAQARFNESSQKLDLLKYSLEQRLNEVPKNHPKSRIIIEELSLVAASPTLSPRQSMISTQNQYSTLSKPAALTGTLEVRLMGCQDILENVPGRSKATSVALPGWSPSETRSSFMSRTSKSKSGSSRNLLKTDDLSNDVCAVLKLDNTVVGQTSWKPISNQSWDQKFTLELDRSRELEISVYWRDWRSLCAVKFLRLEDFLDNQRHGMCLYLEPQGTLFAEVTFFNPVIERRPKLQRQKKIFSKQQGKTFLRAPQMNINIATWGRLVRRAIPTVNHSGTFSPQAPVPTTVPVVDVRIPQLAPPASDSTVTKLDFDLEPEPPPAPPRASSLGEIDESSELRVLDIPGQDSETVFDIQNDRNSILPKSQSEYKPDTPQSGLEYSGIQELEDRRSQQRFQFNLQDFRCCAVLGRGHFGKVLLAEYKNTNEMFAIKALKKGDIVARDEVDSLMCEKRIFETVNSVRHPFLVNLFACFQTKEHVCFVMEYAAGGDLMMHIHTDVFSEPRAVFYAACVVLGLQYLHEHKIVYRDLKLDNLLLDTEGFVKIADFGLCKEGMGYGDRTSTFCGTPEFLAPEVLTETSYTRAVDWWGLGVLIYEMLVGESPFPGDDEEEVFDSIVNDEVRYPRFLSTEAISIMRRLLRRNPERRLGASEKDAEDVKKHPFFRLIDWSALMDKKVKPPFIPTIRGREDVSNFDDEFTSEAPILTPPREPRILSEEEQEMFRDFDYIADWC
# Sequence of Tyrosine-protein kinase JAK2 (Homo sapiens) (O60674 whole entry): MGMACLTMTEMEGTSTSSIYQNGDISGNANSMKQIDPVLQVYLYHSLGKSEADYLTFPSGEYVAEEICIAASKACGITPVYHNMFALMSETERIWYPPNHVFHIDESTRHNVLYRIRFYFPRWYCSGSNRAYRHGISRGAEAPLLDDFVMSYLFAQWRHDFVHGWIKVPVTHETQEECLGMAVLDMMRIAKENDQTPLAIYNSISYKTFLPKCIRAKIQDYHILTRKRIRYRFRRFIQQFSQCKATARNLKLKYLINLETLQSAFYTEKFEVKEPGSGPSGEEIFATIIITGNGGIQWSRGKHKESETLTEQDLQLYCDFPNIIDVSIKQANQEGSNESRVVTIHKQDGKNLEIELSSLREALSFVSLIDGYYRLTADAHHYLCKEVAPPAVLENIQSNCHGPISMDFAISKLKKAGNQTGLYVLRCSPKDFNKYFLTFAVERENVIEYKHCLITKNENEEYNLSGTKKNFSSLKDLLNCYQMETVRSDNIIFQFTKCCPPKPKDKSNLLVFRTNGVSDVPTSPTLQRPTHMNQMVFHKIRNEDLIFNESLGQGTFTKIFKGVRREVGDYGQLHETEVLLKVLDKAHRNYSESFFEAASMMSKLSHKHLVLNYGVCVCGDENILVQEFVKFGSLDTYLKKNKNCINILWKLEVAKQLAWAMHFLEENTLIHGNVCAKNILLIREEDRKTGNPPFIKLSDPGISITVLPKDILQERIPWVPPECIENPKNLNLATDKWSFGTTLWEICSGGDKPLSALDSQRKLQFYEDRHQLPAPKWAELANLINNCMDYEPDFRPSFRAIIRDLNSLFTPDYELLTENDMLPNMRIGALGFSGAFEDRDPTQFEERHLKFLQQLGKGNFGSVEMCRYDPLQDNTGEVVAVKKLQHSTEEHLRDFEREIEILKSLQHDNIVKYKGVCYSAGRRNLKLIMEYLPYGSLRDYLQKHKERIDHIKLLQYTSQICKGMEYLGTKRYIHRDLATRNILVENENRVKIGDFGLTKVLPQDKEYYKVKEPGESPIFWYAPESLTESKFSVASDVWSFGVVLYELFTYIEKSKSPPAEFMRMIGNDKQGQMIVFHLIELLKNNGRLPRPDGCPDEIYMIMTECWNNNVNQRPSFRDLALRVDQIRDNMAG
# Sequence of CDK1/Cyclin E (Homo sapiens) (P06493 whole entry, looked up): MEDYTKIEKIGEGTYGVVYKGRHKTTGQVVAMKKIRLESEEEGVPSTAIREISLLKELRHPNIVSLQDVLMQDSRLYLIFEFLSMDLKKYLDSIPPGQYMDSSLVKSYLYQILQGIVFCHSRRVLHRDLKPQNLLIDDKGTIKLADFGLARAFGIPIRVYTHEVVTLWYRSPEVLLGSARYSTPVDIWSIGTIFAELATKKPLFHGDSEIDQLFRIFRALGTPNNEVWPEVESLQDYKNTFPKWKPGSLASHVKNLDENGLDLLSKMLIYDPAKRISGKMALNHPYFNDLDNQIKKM
# Sequence of CDK1/Cyclin E (Homo sapiens) (P24864 whole entry, looked up): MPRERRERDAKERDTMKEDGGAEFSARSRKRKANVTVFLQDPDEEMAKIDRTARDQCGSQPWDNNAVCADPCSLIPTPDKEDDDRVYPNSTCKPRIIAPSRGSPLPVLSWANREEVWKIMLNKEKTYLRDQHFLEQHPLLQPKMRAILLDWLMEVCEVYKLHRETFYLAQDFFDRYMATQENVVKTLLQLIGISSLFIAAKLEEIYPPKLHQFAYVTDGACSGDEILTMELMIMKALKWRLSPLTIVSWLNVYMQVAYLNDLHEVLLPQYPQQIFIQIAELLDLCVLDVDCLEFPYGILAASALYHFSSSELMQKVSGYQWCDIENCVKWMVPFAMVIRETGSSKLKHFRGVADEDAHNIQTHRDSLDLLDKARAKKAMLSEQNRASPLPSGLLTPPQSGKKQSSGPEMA
SMILES,residual activity [1] [%],residual activity [2] [%],residual activity [3] [%],residual activity [4] [%],residual activity [5] [%],residual activity [6] [%],residual activity [7] [%],residual activity [8] [%],residual activity [9] [%],residual activity [10] [%]
COc1cc2c(Oc3ccc(-c4nc5ccccc5s4)cc3F)ncnc2cc1OCCCN1CCN(C)CC1,102,107,92,105,89,88,96,53,97,72
COc1cc2c(Oc3ccc(-c4nc5ccccc5s4)cc3)ncnc2cc1OCCCN1CCCC1,92,93,82,103,98,94,101,73,122,99
COc1cc2c(Oc3ccc(-c4nc5ccccc5s4)cc3)ncnc2cc1OCCCN1CCN(C)CC1,90,108,90,101,88,89,97,58,92,65
